Experimental data published in doi:10.1101/2021.04.08.439011v1 (biorxiv, 2021).
Like-named read-outs stand apart in the source and are kept apart here.

Tests used:
[1] = target: JAK2(JH1domain-catalytic) (Homo sapiens, UniProt O60674); conditions: 0.1 µM; binder
PRKX = PRKX (Homo sapiens, UniProt P51817); conditions: 0.1 µM; binder
GRK1 = GRK1 (Homo sapiens, UniProt Q15835); conditions: 0.1 µM; binder
SGK2 = SGK2 (Homo sapiens, UniProt Q9HBY8); conditions: 0.1 µM; binder
TNNI3K = TNNI3K (Homo sapiens, UniProt Q59H18); conditions: 0.1 µM; binder
HIPK3 = HIPK3 (Homo sapiens, UniProt Q9H422); conditions: 0.1 µM; binder
HASPIN = HASPIN (Homo sapiens, UniProt Q8TF76); conditions: 0.1 µM; binder
MYLK4 = MYLK4 (Homo sapiens, UniProt Q86YV6); conditions: 0.1 µM; binder
BRSK2 = BRSK2 (Homo sapiens, UniProt Q8IWQ3); conditions: 0.1 µM; binder
Sequence of BRSK2 (Q8IWQ3 whole entry): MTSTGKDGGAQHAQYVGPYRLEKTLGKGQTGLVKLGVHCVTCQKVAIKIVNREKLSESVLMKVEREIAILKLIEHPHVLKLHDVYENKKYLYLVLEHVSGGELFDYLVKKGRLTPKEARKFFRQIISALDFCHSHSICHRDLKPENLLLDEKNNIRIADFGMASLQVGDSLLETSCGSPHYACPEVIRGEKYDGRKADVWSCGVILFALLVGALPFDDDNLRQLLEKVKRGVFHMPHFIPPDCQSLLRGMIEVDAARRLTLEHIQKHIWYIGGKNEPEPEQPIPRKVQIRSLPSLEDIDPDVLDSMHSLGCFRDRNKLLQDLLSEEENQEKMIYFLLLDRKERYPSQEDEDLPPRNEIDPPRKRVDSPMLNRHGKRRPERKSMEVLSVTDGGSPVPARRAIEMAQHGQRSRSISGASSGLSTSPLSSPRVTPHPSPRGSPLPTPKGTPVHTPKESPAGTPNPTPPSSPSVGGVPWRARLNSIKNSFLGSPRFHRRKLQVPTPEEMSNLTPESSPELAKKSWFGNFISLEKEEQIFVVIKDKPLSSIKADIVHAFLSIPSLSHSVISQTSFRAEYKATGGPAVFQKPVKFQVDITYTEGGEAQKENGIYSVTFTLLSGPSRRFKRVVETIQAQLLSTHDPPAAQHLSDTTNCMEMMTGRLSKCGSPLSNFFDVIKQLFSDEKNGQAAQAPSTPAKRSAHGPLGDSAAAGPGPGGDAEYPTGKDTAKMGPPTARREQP

CDK19 = CDK19 (Homo sapiens, UniProt Q9BWU1); conditions: 0.1 µM; binder
Sequence of CDK19 (Q9BWU1 whole entry): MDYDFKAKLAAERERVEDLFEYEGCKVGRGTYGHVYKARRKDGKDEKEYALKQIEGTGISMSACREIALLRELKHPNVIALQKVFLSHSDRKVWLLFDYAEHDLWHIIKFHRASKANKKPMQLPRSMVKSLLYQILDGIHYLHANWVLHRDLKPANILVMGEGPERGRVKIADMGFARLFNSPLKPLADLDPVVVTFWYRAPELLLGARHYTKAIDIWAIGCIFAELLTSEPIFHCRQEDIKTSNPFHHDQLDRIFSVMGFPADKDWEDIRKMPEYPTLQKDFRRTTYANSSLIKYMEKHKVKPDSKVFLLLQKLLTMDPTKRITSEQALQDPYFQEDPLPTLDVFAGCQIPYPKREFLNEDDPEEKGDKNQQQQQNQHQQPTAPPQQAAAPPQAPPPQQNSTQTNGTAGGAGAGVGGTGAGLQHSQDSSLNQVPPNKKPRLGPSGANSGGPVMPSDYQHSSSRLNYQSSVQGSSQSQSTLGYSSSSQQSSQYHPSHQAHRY

S6K1 = S6K1 (Homo sapiens, UniProt P23443); conditions: 0.1 µM; binder
MUSK = MUSK (Homo sapiens, UniProt O15146); conditions: 0.1 µM; binder
TSSK1B = TSSK1B (Homo sapiens, UniProt Q9BXA7); conditions: 0.1 µM; binder
MARK4 = MARK4 (Homo sapiens, UniProt Q96L34); conditions: 0.1 µM; binder
FGFR3(G697C) = FGFR3(G697C) (Homo sapiens, UniProt P22607, G697C); conditions: 0.1 µM; binder
MAST1 = MAST1 (Homo sapiens, UniProt Q9Y2H9); conditions: 0.1 µM; binder
Sequence of MAST1 (Q9Y2H9 whole entry): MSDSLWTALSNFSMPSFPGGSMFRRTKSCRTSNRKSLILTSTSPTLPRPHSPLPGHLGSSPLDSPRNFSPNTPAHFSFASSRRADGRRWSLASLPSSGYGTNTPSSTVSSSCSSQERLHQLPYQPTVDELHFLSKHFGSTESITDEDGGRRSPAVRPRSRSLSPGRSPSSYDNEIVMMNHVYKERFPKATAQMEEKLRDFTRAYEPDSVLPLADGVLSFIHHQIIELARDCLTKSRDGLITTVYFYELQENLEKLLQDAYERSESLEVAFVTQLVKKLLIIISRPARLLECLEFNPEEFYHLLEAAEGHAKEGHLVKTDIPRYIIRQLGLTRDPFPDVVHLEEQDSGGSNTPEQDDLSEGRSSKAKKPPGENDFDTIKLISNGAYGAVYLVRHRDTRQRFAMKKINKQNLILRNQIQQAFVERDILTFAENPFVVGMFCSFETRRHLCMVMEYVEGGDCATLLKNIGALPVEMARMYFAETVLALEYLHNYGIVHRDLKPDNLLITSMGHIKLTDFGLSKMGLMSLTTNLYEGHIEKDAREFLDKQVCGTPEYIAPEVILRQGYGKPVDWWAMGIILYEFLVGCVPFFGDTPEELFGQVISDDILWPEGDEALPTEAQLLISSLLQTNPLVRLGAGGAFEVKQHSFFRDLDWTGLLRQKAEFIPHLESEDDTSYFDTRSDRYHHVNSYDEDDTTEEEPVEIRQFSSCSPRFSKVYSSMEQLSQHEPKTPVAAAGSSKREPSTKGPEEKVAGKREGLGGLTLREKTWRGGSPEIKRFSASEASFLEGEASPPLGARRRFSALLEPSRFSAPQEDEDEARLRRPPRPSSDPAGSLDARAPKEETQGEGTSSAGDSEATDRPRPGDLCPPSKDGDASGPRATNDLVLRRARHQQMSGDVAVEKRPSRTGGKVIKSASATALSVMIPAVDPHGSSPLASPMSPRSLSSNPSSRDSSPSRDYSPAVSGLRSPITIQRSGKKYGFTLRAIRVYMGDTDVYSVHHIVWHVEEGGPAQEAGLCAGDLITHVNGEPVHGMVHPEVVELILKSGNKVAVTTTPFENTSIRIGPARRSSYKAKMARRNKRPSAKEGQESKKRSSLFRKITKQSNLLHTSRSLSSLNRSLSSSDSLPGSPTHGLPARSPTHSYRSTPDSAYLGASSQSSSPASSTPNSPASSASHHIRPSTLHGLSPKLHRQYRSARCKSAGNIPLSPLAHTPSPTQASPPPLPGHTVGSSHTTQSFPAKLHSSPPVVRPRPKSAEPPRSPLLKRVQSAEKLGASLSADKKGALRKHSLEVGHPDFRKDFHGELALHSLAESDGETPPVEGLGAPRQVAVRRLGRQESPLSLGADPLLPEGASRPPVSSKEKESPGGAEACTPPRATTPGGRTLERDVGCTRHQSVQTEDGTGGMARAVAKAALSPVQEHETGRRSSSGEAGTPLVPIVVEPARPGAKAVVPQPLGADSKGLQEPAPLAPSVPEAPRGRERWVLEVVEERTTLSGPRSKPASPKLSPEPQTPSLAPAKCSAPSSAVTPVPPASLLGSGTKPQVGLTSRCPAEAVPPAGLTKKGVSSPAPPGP

CDKL2 = CDKL2 (Homo sapiens, UniProt Q92772); conditions: 0.1 µM; binder
PIK3CA(C420R) = PIK3CA(C420R) (Homo sapiens, UniProt P42336, C420R); conditions: 0.1 µM; binder
KIT = KIT (Homo sapiens, UniProt P10721); conditions: 0.1 µM, binder
Sequence of KIT (P10721 whole entry): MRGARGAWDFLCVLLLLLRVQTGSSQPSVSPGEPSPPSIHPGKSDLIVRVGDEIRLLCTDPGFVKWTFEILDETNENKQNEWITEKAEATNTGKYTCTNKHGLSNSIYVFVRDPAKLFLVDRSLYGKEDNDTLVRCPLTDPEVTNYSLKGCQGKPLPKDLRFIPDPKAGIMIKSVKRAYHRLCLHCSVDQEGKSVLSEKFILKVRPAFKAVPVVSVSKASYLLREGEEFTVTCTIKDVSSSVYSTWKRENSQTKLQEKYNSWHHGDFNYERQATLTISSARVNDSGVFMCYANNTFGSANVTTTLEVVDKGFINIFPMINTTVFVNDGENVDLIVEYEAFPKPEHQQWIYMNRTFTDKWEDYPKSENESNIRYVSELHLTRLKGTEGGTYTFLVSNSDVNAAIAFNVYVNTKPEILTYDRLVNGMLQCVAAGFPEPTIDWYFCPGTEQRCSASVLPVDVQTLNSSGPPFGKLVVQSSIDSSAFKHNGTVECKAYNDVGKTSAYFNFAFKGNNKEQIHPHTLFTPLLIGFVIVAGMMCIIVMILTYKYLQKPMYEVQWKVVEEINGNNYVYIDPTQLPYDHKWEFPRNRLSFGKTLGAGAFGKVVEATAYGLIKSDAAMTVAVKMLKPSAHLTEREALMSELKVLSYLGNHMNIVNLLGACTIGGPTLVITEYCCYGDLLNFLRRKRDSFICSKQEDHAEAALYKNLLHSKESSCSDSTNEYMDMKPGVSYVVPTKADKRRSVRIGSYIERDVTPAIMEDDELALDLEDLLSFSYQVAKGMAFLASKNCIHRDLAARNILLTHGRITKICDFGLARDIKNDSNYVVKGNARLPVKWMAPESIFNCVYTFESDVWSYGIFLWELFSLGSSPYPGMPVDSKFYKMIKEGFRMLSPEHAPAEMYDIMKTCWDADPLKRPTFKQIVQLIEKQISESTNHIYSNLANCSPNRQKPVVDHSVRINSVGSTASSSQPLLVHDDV

EGFR(L861Q) = EGFR(L861Q) (Homo sapiens, UniProt P00533, L861Q); conditions: 0.1 µM; binder
CSK = CSK (Homo sapiens, UniProt P41240); conditions: 0.1 µM; binder
MARK3 = MARK3 (Homo sapiens, UniProt P27448); conditions: 0.1 µM; binder
NLK = NLK (Homo sapiens, UniProt Q9UBE8); conditions: 0.1 µM; binder
KIT(V559D,T670I) = KIT(V559D,T670I) (Homo sapiens, UniProt P10721, T670I/V559D); conditions: 0.1 µM; binder
Sequence of KIT(V559D,T670I) (P10721 whole entry V559D/T670I): as the sequence (P10721 whole entry) above, with V559D, T670I counted along it

PRKCH = PRKCH (Homo sapiens, UniProt P24723); conditions: 0.1 µM; binder
CDKL3 = CDKL3 (Homo sapiens, UniProt Q8IVW4); conditions: 0.1 µM; binder
HUNK = HUNK (Homo sapiens, UniProt P57058); conditions: 0.1 µM; binder
SRC = SRC (Homo sapiens, UniProt P12931); conditions: 0.1 µM; binder
SLK = SLK (Homo sapiens, UniProt Q9H2G2); conditions: 0.1 µM; binder
[2] = target: RSK4(Kin.Dom.2-C-terminal) (Homo sapiens, UniProt Q9UK32); conditions: 0.1 µM; binder
[3] = target: RPS6KA4(Kin.Dom.1-N-terminal) (Homo sapiens, UniProt O75676); conditions: 0.1 µM; binder
Sequence of RPS6KA4(Kin.Dom.1-N-terminal) (O75676 whole entry): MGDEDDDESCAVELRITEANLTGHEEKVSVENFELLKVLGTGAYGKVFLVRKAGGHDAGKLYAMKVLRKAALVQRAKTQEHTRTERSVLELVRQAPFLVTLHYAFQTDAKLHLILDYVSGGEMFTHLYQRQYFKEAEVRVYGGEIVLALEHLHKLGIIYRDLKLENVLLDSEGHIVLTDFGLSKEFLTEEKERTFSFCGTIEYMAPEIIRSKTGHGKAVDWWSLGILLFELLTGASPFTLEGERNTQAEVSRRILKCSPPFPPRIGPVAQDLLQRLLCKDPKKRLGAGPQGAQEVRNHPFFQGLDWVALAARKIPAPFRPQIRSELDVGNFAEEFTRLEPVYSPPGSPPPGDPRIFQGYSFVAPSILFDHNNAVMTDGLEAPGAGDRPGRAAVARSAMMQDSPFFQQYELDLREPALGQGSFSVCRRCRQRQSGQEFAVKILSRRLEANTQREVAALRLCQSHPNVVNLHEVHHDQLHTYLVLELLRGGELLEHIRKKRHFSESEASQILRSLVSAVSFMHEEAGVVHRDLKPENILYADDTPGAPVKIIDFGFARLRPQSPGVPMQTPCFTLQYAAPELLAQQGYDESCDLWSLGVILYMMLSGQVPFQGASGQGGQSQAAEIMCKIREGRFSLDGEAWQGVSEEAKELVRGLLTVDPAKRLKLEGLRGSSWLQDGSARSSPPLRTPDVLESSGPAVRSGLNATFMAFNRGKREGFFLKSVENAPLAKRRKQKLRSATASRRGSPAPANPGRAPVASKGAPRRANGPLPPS

Sequence of SGK2 (Q9HBY8 whole entry): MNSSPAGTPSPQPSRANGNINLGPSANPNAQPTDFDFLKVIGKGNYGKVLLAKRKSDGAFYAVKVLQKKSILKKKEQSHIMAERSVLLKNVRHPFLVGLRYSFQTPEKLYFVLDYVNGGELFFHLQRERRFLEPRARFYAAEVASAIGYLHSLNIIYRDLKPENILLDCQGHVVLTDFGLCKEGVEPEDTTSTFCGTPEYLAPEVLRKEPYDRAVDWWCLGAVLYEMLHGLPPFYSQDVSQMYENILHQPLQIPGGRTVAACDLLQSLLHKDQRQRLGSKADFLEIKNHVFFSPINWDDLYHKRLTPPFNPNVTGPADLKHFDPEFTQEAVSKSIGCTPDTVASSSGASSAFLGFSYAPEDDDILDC

## CNc1ncc2cc(-c3ccc(-c4cccc(C)n4)cc3Cl)c(=O)n(C[C@H]3OC[C@H](N)CO3)c2n1 [compound 6, G-5555]
[1]
  Percent Control: 99%
PRKX
  Percent Control: 100%
GRK1
  Percent Control: 100%
SGK2
  Percent Control: 100%
TNNI3K
  Percent Control: 100%
HIPK3
  Percent Control: 86%
HASPIN
  Percent Control: 87%
MYLK4
  Percent Control: 100%
BRSK2
  Percent Control: 100%
CDK19
  Percent Control: 87%
S6K1
  Percent Control: 92%
MUSK
  Percent Control: 100%
TSSK1B
  Percent Control: 98%
MARK4
  Percent Control: 100%
FGFR3(G697C)
  Percent Control: 99%
MAST1
  Percent Control: 47%
CDKL2
  Percent Control: 100%
PIK3CA(C420R)
  Percent Control: 80%
KIT
  Percent Control: 100%
KIT; autoinhibited
  Percent Control: 82%
EGFR(L861Q)
  Percent Control: 100%
CSK
  Percent Control: 100%
MARK3
  Percent Control: 45%
NLK
  Percent Control: 73%
KIT(V559D,T670I)
  Percent Control: 98%
PRKCH
  Percent Control: 82%
CDKL3
  Percent Control: 89%
HUNK
  Percent Control: 100%
SRC
  Percent Control: 100%
SLK
  Percent Control: 89%
[2]
  Percent Control: 100%
[3]
  Percent Control: 100%
